Measurements reported in ChEMBL document CHEMBL1201862, “PubChem BioAssay data set” (2004).
Calls of active or inactive are those of the source.

Key:
A-375 = assay: A375 melanoma cell viability reduction, dose response, counter-screen for MITF modulator project, cherry-pick samples, set 2 (AID 540335); assay type: functional, cell-based; details: Homo sapiens
[1] = target: T1, Microphthalmia-associated transcription factor (Homo sapiens, UniProt O75030); assay: TRPM1 promoter luciferase signal decrease, dose response, MITF inhibitor project, cell-based, SK-MEL-5, cherry-picked, set 3 (AID 493073); assay type: functional
T1 sequence (O75030 whole entry): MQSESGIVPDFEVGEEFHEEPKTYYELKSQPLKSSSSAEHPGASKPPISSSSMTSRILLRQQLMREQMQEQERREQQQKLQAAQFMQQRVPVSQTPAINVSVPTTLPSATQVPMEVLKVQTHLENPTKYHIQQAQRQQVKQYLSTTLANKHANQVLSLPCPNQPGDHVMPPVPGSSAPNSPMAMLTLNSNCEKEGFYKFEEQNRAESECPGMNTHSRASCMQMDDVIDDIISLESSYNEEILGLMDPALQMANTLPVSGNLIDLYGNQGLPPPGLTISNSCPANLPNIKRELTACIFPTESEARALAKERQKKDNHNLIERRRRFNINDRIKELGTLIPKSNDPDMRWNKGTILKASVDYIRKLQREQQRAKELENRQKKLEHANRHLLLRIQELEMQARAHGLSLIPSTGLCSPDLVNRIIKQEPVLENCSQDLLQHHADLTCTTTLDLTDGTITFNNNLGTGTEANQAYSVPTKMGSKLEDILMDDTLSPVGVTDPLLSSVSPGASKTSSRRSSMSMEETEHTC

[2] = A Cell Based Secondary Assay To Explore Cytotoxicity of Compounds that Sensitize Mycobacterium Tuberculosis to Beta-Lactam Antibiotics.; assay type: functional
BJ [3] = assay: cytotoxicity toward BJ-TERT-LT-ST fibroblasts, dose response, cell-based, RAS-independent, luminescence (AID 1935); assay type: functional; details: Homo sapiens;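 note: BJ fibroblasts immortalized with TERT plus LT and ST oncogenes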
BJ [4] = assay: cells; assay type: functional, cell-based; details: Homo sapiens
BJ [5] = assay: cytotoxicity toward BJ-TERT fibroblasts, dose response, cell-based, RAS-independent, luminescence (AID 1933); assay type: functional; details: Homo sapiens
[6] = cytotoxicity toward DRD oncogenic fibroblasts, dose response, cell-based, non-viral oncogenic, luminescence (AID 1934); assay type: functional; details: Homo sapiens
[7] = target: Voltage-gated inwardly rectifying potassium channel KCNH2 (Homo sapiens, UniProt Q12809); details: Potency;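 note: confirmatory quantitative high-throughput screen measuring inhibition of hERG channel activity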
Vero [8] = assay: cells; assay type: functional, cell-based; details: Chlorocebus sabaeus
[9] = target: Heat shock protein HSP 90-alpha (Homo sapiens, UniProt P07900); assay type: functional, organism-based
Vero [10] = assay: cells; assay type: functional; details: Chlorocebus sabaeus
[11] = target: Glucose-6-phosphate 1-dehydrogenase (Homo sapiens, UniProt P11413); assay: human G6PD enzyme inhibitors, dose response, selectivity assay for P. falciparum G6PD inhibitor project, biochemical, fluorescence (AID 504792); assay type: functional
DNA topoisomerase = DNA topoisomerase (Yersinia pestis, UniProt A0A2S9PM60); assay: Y. pestis Topo-I inhibitors, cleavage product readout, dose response, biochemical, cherry-pick (AID 588525)
HEK293 [12] = assay: SAR Analysis of small molecule inhibitors of T-cell specific antigen receptor-induced NF-kB activation in a HEK-293T cell line using a luminescence assay - Set 2. [Related pubchem assays (depositor defined):AID435003, AID435012, AID489026]; assay type: functional, cell-based; details: Homo sapiens
HEK293 [13] = assay: cytotoxicity in HEK293T NF-kB-Luc cells, SAR follow-up, cytotoxicity control for NF-kB activator project, cell-based, resazurin fluorescence (AID 493251); assay type: functional; details: Homo sapiens
Jurkat = assay: SAR Analysis of small molecule inhibitors of T-cell specific antigen receptor-induced NF-kB activation in a Jurkat cell line using a luminescence assay - Set 2. [Related pubchem assays (depositor defined):AID435003, AID435012, AID465]; assay type: functional, cell-based; details: Homo sapiens

Chain of Voltage-gated inwardly rectifying potassium channel KCNH2 (Q12809 whole entry): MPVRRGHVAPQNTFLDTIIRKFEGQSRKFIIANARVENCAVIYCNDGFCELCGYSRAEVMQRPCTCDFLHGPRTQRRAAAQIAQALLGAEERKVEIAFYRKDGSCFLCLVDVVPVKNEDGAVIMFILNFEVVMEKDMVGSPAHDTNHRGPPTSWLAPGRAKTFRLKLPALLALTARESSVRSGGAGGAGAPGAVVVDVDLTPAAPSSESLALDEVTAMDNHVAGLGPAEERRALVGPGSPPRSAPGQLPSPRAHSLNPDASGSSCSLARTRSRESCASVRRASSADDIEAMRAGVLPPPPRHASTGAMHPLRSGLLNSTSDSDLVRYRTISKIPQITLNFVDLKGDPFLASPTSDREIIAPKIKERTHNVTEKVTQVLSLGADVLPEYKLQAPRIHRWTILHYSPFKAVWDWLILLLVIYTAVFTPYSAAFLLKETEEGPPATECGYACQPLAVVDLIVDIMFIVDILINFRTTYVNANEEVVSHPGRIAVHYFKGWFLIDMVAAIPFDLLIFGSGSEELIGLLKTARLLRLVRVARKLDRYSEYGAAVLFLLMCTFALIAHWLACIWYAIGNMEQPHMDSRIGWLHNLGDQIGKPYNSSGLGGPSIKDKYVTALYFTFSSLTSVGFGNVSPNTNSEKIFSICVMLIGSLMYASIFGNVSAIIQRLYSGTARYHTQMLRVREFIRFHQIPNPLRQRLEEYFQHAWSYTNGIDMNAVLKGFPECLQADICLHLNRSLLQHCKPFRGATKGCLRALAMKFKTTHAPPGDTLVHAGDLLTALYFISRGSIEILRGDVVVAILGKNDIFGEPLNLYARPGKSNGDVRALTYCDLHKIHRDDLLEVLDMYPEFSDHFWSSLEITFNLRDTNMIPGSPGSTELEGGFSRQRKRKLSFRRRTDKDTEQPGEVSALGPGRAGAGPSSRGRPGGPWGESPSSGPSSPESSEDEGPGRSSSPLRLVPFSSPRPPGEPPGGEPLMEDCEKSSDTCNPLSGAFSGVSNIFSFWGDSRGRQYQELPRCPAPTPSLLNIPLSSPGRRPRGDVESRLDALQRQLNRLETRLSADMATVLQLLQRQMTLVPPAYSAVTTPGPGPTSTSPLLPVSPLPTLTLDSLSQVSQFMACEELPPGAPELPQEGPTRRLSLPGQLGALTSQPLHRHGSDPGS
Chain of DNA topoisomerase (A0A2S9PM60 whole entry): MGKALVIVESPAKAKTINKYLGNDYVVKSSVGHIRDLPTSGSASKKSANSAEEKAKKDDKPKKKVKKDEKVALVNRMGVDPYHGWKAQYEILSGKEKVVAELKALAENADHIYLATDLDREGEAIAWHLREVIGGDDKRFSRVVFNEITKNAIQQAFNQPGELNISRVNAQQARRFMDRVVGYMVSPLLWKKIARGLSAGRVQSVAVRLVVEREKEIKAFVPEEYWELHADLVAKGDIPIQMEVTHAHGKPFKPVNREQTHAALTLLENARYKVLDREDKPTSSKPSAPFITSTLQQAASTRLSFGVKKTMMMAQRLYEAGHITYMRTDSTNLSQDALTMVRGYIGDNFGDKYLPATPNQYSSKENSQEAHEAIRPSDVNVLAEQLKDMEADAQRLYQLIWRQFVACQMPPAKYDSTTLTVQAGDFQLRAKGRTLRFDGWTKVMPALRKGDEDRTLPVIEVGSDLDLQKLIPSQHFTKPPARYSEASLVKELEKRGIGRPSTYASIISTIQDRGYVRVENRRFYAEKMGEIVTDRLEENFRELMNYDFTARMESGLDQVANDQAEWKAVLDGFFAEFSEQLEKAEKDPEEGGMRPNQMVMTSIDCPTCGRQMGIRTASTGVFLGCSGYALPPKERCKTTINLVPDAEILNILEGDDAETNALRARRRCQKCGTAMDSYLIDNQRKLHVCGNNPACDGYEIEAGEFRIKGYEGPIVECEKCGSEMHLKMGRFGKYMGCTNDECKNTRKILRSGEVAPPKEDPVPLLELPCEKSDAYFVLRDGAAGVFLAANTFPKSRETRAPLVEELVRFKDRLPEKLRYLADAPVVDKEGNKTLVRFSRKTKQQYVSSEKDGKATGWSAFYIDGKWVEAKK
Chain of Glucose-6-phosphate 1-dehydrogenase (P11413 whole entry): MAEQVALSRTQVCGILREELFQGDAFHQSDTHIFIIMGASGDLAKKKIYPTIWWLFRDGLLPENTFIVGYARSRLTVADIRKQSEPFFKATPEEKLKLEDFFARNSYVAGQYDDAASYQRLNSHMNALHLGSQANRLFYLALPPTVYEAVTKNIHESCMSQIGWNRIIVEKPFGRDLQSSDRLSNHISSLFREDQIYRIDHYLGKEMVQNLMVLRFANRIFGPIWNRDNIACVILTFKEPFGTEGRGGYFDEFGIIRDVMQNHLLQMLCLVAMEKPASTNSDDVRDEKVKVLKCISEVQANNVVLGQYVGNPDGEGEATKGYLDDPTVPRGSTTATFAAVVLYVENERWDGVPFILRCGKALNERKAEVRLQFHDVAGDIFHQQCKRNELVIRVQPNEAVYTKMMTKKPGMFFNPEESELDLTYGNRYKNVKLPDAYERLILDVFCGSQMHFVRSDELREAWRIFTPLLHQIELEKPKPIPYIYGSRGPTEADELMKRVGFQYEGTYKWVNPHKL

COc1ccc2[nH]cc(C(=O)CCl)c2c1
AC50 (A-375): 45.9 µM (active)
AC50 [1]: 5.65 µM (active)
CC50 [2]: 5.65 µM (active)
EC50 (BJ [3]): 7.84 µM (inconclusive)
EC50 (BJ [4]): 7.02 µM (active)
EC50 (BJ [5]): 4.61 µM (active)
EC50 [6]: 8.64 µM (active)

N=C1C=CC(=C(c2ccc(N)cc2)c2ccc(N)cc2)C=C1
AC50 [7]: 44.7 µM (inconclusive)

O=[N+]([O-])c1ccc(NC(c2ccccc2)c2ccc3cccnc3c2O)cc1 (centres undefined)
IC50 (Vero [8]): > 25 µM (active)
AC50 [9]: 3.92 µM (active)
CC50 (Vero [10]): 4.02 µM (active)

CN(C)c1ccc2nc3ccc(=O)cc-3sc2c1
IC50 [11]: > 80 µM (inactive)
AC50 (DNA topoisomerase): 4.67 µM (active)

CCCOc1ccc(C(=O)Nc2ccc(S(=O)(=O)N3C[C@@H]4C[C@@H](C3)c3cccc(=O)n3C4)cc2)cc1
AC50 (DNA topoisomerase): 3.3 µM (active)

CN1CCN(c2ccccc2NC(=O)c2ccc([N+](=O)[O-])o2)CC1
AC50 [1]: 4.95 µM (active)
IC50 (HEK293 [12]): 15.6 µM (active)
IC50 (HEK293 [13]): 23.6 µM (inactive)
IC50 (Jurkat): 24.8 µM (inactive)

Clc1ccc(C(c2ccccc2Cl)C(Cl)(Cl)Cl)cc1 (centres undefined)
AC50 [7]: 8.91 µM (inconclusive)
